{"source": "paper PMC9694494", "about": "“Resveratrol/Hydrazone Hybrids: Synthesis and Chemopreventive Activity against Colorectal Cancer Cells” (Pharmaceutics, 2022)", "key": {"SW620 cells [1]": {"tested_on": "SW620 cells", "assay": "Antiproliferative activity (SRB, 2-8 days), SW620", "assay_type": "cell-based", "conditions": "Homo sapiens, read-out: Viability (%) ± SE; for viability at 3 µM: SW620, 3 µM; for viability at 6 µM: SW620, 6 µM; for viability at 12 µM: SW620, 12 µM; for viability at 24 µM: SW620, 24 µM; for viability at 48 µM: SW620, 48 µM", "experimental": "The procedure for evaluating the antiproliferative activity was carried out using the same colorimetric test (SRB) described for cell viability, with minor modifications. Briefly, 2500 cells/well were seeded in 96-well tissue culture plates and incubated as in the previously described conditions for 0, 2, 4, 6, and 8 days. […] The culture medium was changed every 48 h. After each incubation time, cells were fixed, stained, and read as previously described for this technique."}, "SW620 cells [2]": {"tested_on": "SW620 cells", "assay": "Cell cycle analysis (PI flow cytometry), SW620", "assay_type": "cell-based, human", "conditions": "SW620, 48 h treatment", "experimental": "(§1) Cell staining with the fluorescent propidium iodide (PI) was used to measure cell cycle distribution. The assays were carried out following the previous methodology described by Nicoletti et al. (1991). Briefly, 2.5 × 10^5 cells/well were seeded in 6-well tissue culture plates at 37 °C and 5% CO2. After 24 h of adherence, cells were treated during 48 h with hybrids 6e and 7, together with the vehicle control. At the end of each treatment, cells were scraped, and the centrifuged pellet was resuspended in 1.8 mL of 70% ethanol at 4 °C to fix the cells overnight. Then, after centrifugation, cells were washed twice in versene buffer to completely remove the alcohol, besides, they were further resuspended in 300 µL of PBS containing 0.25 mg/mL RNAse (Type I-A, Sigma-Aldrich, Darmstadt, Germany) and 0.1 mg/mL PI. After the incubation in the dark (for 30 min at room temperature), 10,000 events were analyzed with a FACS Canto II flow cytometer and the software BD FACS Diva 6.1.3. (BD Biosciences, San Jose, CA, USA). The PI fluorescence signal was analyzed with excitation at 488 nm (using a Sapphire laser), and detection at 610 nm. The cell cycle model was fixed with FlowJo 7.6.2 (Ashland, OR, USA), applying the Dean-Jett-Fox model."}, "SW480 cells": {"tested_on": "SW480 cells", "assay": "Cell cycle analysis (PI flow cytometry), SW480", "assay_type": "cell-based, human", "conditions": "SW480, 48 h treatment", "experimental": "as §1"}, "[3]": {"conditions": "SW-620, 48 h, 2 days after plating"}, "[4]": {"conditions": "SW-620, 96 h, 4 days after plating"}, "[5]": {"conditions": "SW-620, 144 h, 6 days after plating"}, "[6]": {"conditions": "SW-620, 192 h, 8 days after plating"}}, "note": "Like-named read-outs stand apart in the source and are kept apart here.", "data": [{"smiles": "O=C(N/N=C/c1c(O)cc(O)cc1/C=C/c1ccc(O)cc1)c1ccncc1", "note": "[compound 7, N′-((E)-2,4-dihydroxy-6-((E)-4-hydroxystyryl)benzylidene)isonicotinohydrazide]", "values": [{"measurement": "viability at 3 µM", "setting": "SW620 cells [1]; [3]", "value": "89.3 ± 1.65", "unit": "%"}, {"measurement": "viability at 6 µM", "setting": "SW620 cells [1]; [3]", "value": "88 ± 2.48", "unit": "%"}, {"measurement": "viability at 12 µM", "setting": "SW620 cells [1]; [3]", "value": "67.82 ± 0.4", "unit": "%"}, {"measurement": "viability at 24 µM", "setting": "SW620 cells [1]; [3]", "value": "45.21 ± 0.38", "unit": "%"}, {"measurement": "viability at 48 µM", "setting": "SW620 cells [1]; [3]", "value": "41.5 ± 3.3", "unit": "%"}, {"measurement": "viability at 3 µM", "setting": "SW620 cells [1]; [4]", "value": "87.29 ± 0.75", "unit": "%"}, {"measurement": "viability at 6 µM", "setting": "SW620 cells [1]; [4]", "value": "72.4 ± 0.9", "unit": "%"}, {"measurement": "viability at 12 µM", "setting": "SW620 cells [1]; [4]", "value": "33 ± 1.8", "unit": "%"}, {"measurement": "viability at 24 µM", "setting": "SW620 cells [1]; [4]", "value": "27.8 ± 2.96", "unit": "%"}, {"measurement": "viability at 48 µM", "setting": "SW620 cells [1]; [4]", "value": "6.31 ± 0.74", "unit": "%"}, {"measurement": "viability at 3 µM", "setting": "SW620 cells [1]; [5]", "value": "59.2 ± 2.77", "unit": "%"}, {"measurement": "viability at 6 µM", "setting": "SW620 cells [1]; [5]", "value": "43.4 ± 0.48", "unit": "%"}, {"measurement": "viability at 12 µM", "setting": "SW620 cells [1]; [5]", "value": "17.8 ± 0.3", "unit": "%"}, {"measurement": "viability at 24 µM", "setting": "SW620 cells [1]; [5]", "value": "8.13 ± 1.48", "unit": "%"}, {"measurement": "viability at 48 µM", "setting": "SW620 cells [1]; [5]", "value": "0.26 ± 0.07", "unit": "%"}, {"measurement": "viability at 3 µM", "setting": "SW620 cells [1]; [6]", "value": "46.55 ± 0.03", "unit": "%"}, {"measurement": "viability at 6 µM", "setting": "SW620 cells [1]; [6]", "value": "38.53 ± 0.28", "unit": "%"}, {"measurement": "viability at 12 µM", "setting": "SW620 cells [1]; [6]", "value": "5.53 ± 0.11", "unit": "%"}, {"measurement": "viability at 24 µM", "setting": "SW620 cells [1]; [6]", "value": "3.93 ± 0.59", "unit": "%"}, {"measurement": "viability at 48 µM", "setting": "SW620 cells [1]; [6]", "value": 0, "unit": "%"}, {"measurement": "Cell cycle distribution Sub G0/G1", "setting": "SW620 cells [2]", "value": 20.60, "unit": "%"}]}, {"smiles": "COc1ccc(C(=O)N/N=C/c2c(O)cc(O)cc2/C=C/c2ccc(O)cc2)c(OC)c1", "note": "[6e, N′-((E)-2,4-dihydroxy-6-((E)-4-hydroxystyryl)benzylidene)-2,4-dimethoxybenzohydrazide]", "values": [{"measurement": "Cell cycle distribution G0/G1", "setting": "SW480 cells", "value": 58.95, "unit": "%"}, {"measurement": "Cell cycle distribution G2/M", "setting": "SW480 cells", "value": 21.31, "unit": "%"}]}]}
